Measurements reported in patent US9615580B2, “Fused heterocyclic compound and use thereof for pest control” (Sumitomo Chemical Company, Limited, priority 2012, dated 2017).

Tests used:
Assay type in all cases: in vivo
Aphis gossypii = test: Test Example 1: foliar spray on cucumber seedling inoculated with Aphis gossypii; settings: 144 h, 500 ppm active ingredient, 20 ml sprayed on cucumber seedling, 6 days after spraying
Experimental: On the other hand, on a cucumber seedling (the first true leaf stage) planted in a plastic cup was inoculated with about 30 Aphis gossypii (whole stage), and leaving it for a day. Twenty (20) ml of each test solution was sprayed on the seedling. Six (6) days after spraying, the number of the surviving Aphis gossypii parasitized on the leaves of the cucumber was examined, and a control value was calculated according to the following equation: Controlling value (%)={1−(Cb×Tai)/(Cai×Tb)}×100 wherein the symbols in the above equation represent as follows: Cb: the number of insects in a non-treated section before treatment Cai: the number of insects in a non-treated section on observation Tb: the number of insects in a treated section before treatment Tai: the number of insects in a […] the non-treated section represents a section where the test diluted solution prepared by diluting the formulation without the present compound as in Formulation Example 5 with the same amount of water as in the treated-section was used.

Plutella xylostella = test: Test Example 6: spray on cabbage, Plutella xylostella larvae released; settings: 120 h, 20 mL/cup sprayed on cabbage, second instar larvae, 25° C., 5 days, read-out: death rate
Experimental: Each test solution was prepared by diluting a formulation containing any of the present compounds 1-4, 1-5, 1-6, 1-8, 1-9, 1-10, 1-16, 1-18, 1-19, 1-20, 1-29, 1-46, 1-48, 1-49, 1-50, 1-63 and 1-76 as obtained in Formulation Example 5, with water so as to give 500 ppm of the concentration of the active ingredient.
On the other hand, Cabbage (the third leaf stage) planted in a polyethylene cup was sprayed with 20 mL/cup of each test solution. After the test solution was dried, the aerial part was cut off, and then placed in a 50 mL volume cup. Five (5) second instar larvae of Plutella xylostella were released into the cup, and the cup was sealed with a lid. After the cup was kept at 25° C. for 5 days, the number of living insects was counted. A death rate was calculated according to the following equation: Death rate (%)=(Number of dead insects/Number of tested insects)×100

Musca domestica = test: Test Example 8: treated filter paper with sucrose bait, Musca domestica; settings: 500 ppm, 0.7 ml on filter paper, female imagoes, after 24 hours
Experimental: Each test solution was prepared by diluting a formulation containing any of the present compounds 1-4, 1-6, 1-8, 1-9, 1-10, 1-63 and 1-95 as obtained in Formulation Example 5, with water so as to give 500 ppm of the concentration of the active ingredient.
(§1) A filter paper having a diameter of 5.5 cm was spread on the bottom of a polyethylene cup having a diameter of 5.5 cm and each test solution (0.7 ml) was added dropwise onto the filter paper. As a bait sucrose (30 mg) was uniformly placed on the filter paper. Into the polyethylene cup, 10 female imagoes of Musca domestica were released and the cup was sealed with a lid. After 24 hours, the number of surviving Musca domestica was examined and the death rate of the pest was calculated according to the following equation: Death rate (%)=(Number of dead insects/Number of tested insects)×100

Nilaparvata lugens [1] = test: Test Example 4: soil drench of rice seedling, Nilaparvata lugens larvae released; settings: 144 h, 5 ml drench at foot of rice seedling, larvae released after 7 days, counted 6 days later
Experimental: On the other hand, a rice seedling (2 weeks after sowing, the second leaf stage) planted in a plastic cup was drenched at its foot with 5 ml of each test solution, and kept in a greenhouse of 25° C. for 7 days. Twenty (20) third-fourth instar larvae of Nilaparvata lugens were released, and further kept in the greenhouse for 6 days, then the number of insect of living Nilaparvata lugens parasitized on the rice was examined, and a control value was calculated according to the following equation: Controlling value (%)={1−(Cb×Tai)/(Cai×Tb)}×100 wherein the symbols in the above equation represent as follows: Cb: the number of insects in a non-treated section before treatment Cai: the number of insects in a non-treated section on observation Tb: the number of insects in a treated section before treatment Tai: the number of insects in a […] the non-treated section represents a section where the test diluted solution prepared by diluting the formulation without the present compound as in Formulation Example 5 with the same amount of water as in the treated-section was used.

Nilaparvata lugens [2] = test: Test Example 3: spray on rice seedling, Nilaparvata lugens larvae released; settings: 144 h, 10 ml sprayed on rice seedling, third-fourth instar larvae, after 6 days
Experimental: On the other hand, a rice seedling (the second leaf stage) planted in a polyethylene cup was sprayed with 10 ml of each test solution. After air-drying, 20 third-fourth instar larvae of Nilaparvata lugens were released, and kept in the greenhouse of 25° C. After 6 days, the number of insect of living Nilaparvata lugens parasitized on the rice was examined, and a control value was calculated according to the following equation: Controlling value (%)={1−(Cb×Tai)/(Cai×Tb)}×100 wherein the symbols in the above equation represent as follows: Cb: the number of insects in a non-treated section before treatment Cai: the number of insects in a non-treated section on observation Tb: the number of insects in a treated section before treatment Tai: the number of insects in a […] the non-treated section represents a section where the test diluted solution prepared by diluting the formulation without the present compound as in Formulation Example 5 with the same amount of water as in the treated-section was used.

Sogatella furcifera = test: Test Example 13: spray on rice seedling, Sogatella furcifera larvae released; settings: 50 ppm, 10 ml sprayed on rice seedling, third instar larvae, after 5 days; method equation is a death rate
Experimental: (§2) Any of the present compounds 1-6, 1-8, 1-9 and 1-10 (10 mg) was dissolved in a mixed solution (0.1 ml) of xylene, DMF and Sorpol® 3005X (manufactured by Toho Chemical Industry Co., Ltd.) in a ratio of 4:4:1 to obtain a formulation. Each formulation was diluted with water so as to give 50 ppm of the concentration of the active ingredient.
(§3) On the other hand, a rice seedling (2.5 leaf stage) planted in a polyethylene cup was sprayed with 10 ml of each test solution. After air-drying the seedling, 10 third instar larvae of Sogatella furcifera were released, and kept in the greenhouse of 25° C. After 5 days, the number of living insects was counted. A death rate was calculated according to the following equation: Death rate (%)={10−(Number of living insects after 5 days)/10}×100 As a result, in the treated-section using each test solution containing each of the present compounds 1-6, 1-8, 1-9 and 1-10, the control value was 100%.

Laodelphax striatella = test: Test Example 12: spray on rice seedling, Laodelphax striatella larvae released; settings: 50 ppm, 10 ml sprayed on rice seedling, third instar larvae, after 5 days; method equation is a death rate
Experimental: as §2
as §3, with “Laodelphax striatella” for “Sogatella furcifera”, “days)/10}×100” for “days)/10}×100 As a result, in the treated-section using each test solution containing each of the present compounds 1-6, 1-8, 1-9 and 1-10, the control value was 100%.”

Blattalla germanica = test: Test Example 9: treated filter paper with sucrose bait, Blattalla germanica; settings: 500 ppm, 0.7 ml on filter paper, male imagoes, after 6 hours
Experimental: Each test solution was prepared by diluting a formulation containing any of the present compounds 1-9 and 1-19 as obtained in Formulation Example 5, with water so as to give 500 ppm of the concentration of the active ingredient.
as §1, with “Sucrose (30 mg) as” for “As”, “bait” for “bait sucrose (30 mg)”, “2 male” for “10 female”, “Blattalla germanica” for “Musca domestica”, “6” for “24”

| SMILES | pest or weed control at 500 ppm (Aphis gossypii) [%] | pest or weed control at 500 ppm (Plutella xylostella) [%] | death rate (Musca domestica) [%] | pest or weed control at 500 ppm (Nilaparvata lugens [1]) [%] | pest or weed control at 500 ppm (Nilaparvata lugens [2]) [%] | control value (Sogatella furcifera) [%] | control value (Laodelphax striatella) [%] | death rate (Blattalla germanica) [%] |
| --- | --- | --- | --- | --- | --- | --- | --- | --- |
| CCS(=O)(=O)c1cccnc1-c1nc2cc([S+]([O-])C(F)(F)F)cnc2o1 (centres unmarked) [present compound 1-4, 2-(3-ethylsulfonylpyridin-2-yl)-6-(trifluoromethylsulfinyl)oxazolo[5,4-b]pyridine] | ≥ 90 | ≥ 80 | 100 | ≥ 90 | ≥ 90 | – | – | – |
| CCS(=O)(=O)c1cccnc1-c1nc2cc(S(=O)(=O)C(F)(F)F)cnc2o1 [present compound 1-5, 2-(3-ethylsulfonylpyridin-2-yl)-6-(trifluoromethylsulfonyl)oxazolo[5,4-b]pyridine] | ≥ 90 | ≥ 80 | – | – | – | – | – | – |
| CCSc1cccnc1-c1nc2cc(SC(F)(F)F)ccc2o1 [present compound 1-6, 2-(3-ethylsulfanylpyridine-2-yl)-5-(trifluoromethylsulfanyl)benzoxazole] | ≥ 90 | ≥ 80 | 100 | ≥ 90 | ≥ 90 | 100 | 100 | – |
| CCS(=O)(=O)c1cccnc1-c1nc2cc(SC(F)(F)F)ccc2o1 [present compound 1-8, 2-(3-ethylsulfonylpyridin-2-yl)-5-(trifluoromethylsulfanyl)benzoxazole] | ≥ 90 | ≥ 80 | 100 | ≥ 90 | ≥ 90 | 100 | 100 | – |
| CCS(=O)(=O)c1cccnc1-c1nc2cc([S+]([O-])C(F)(F)F)ccc2o1 (centres unmarked) [present compound 1-9, 2-(3-ethylsulfonylpyridin-2-yl)-5-(trifluoromethylsulfinyl)benzoxazole] | ≥ 90 | ≥ 80 | 100 | ≥ 90 | ≥ 90 | 100 | 100 | 100 |
| CCS(=O)(=O)c1cccnc1-c1nc2cc(S(=O)(=O)C(F)(F)F)ccc2o1 [present compound 1-10, 2-(3-ethylsulfonylpyridin-2-yl)-5-(trifluoromethylsulfonyl)benzoxazole] | ≥ 90 | ≥ 80 | 100 | ≥ 90 | ≥ 90 | 100 | 100 | – |
| CCSc1cc(C(F)(F)F)cnc1-c1nc2cc(SC(F)(F)F)ccc2o1 [present compound 1-16, 2-(3-ethylsulfanyl-5-trifluoromethylpyridine-2-yl)-5-(trifluoromethylsulfanyl)benzoxazole] | – | ≥ 80 | – | – | – | – | – | – |
| CCS(=O)(=O)c1cc(C(F)(F)F)cnc1-c1nc2cc(SC(F)(F)F)ccc2o1 [present compound 1-18, 2-(3-ethylsulfonyl-5-trifluoromethylpyridine-2-yl)-5-(trifluoromethylsulfanyl)benzoxazole] | ≥ 90 | ≥ 80 | – | – | ≥ 90 | – | – | – |
| CCS(=O)(=O)c1cc(C(F)(F)F)cnc1-c1nc2cc([S+]([O-])C(F)(F)F)ccc2o1 (centres unmarked) [present compound 1-19, 2-(3-ethylsulfonyl-5-trifluoromethylpyridine-2-yl)-5-(trifluoromethylsulfinyl)benzoxazole] | ≥ 90 | ≥ 80 | – | ≥ 90 | ≥ 90 | – | – | 100 |
| CCS(=O)(=O)c1cc(C(F)(F)F)cnc1-c1nc2cc(S(=O)(=O)C(F)(F)F)ccc2o1 [present compound 1-20, 2-(3-ethylsulfonyl-5-trifluoromethylpyridine-2-yl)-5-(trifluoromethylsulfonyl)benzoxazole] | ≥ 90 | ≥ 80 | – | – | – | – | – | – |
| CCSc1cccnc1-c1nc2cc([S+]([O-])C(F)(F)F)ccc2o1 (centres unmarked) [present compound 1-63, 2-(3-ethylsulfanylpyridine-2-yl)-5-(trifluoromethylsulfinyl)benzoxazole] | ≥ 90 | ≥ 80 | 100 | ≥ 90 | – | – | – | – |
| CCSc1cc(C(F)(F)F)cnc1-c1nc2cc([S+]([O-])C(F)(F)F)cnc2o1 (centres unmarked) [present compound 1-65, 2-(3-ethylsulfanyl-5-trifluoromethylpyridine-2-yl)-6-(trifluoromethylsulfinyl)oxazolo[5,4-b]pyridine] | ≥ 90 | – | – | – | – | – | – | – |
| CCS(=O)(=O)c1ccc[n+]([O-])c1-c1nc2cc(S(=O)(=O)C(F)(F)F)ccc2o1 [present compound 1-76] | ≥ 90 | ≥ 80 | – | ≥ 90 | ≥ 90 | – | – | – |
